# Experiments:
# Assay type in all cases: cell-based
# A 549 = experiment: Anti-proliferative activity in other cancer cell lines (MTT assay); conditions: Homo sapiens, A549, 96 h, A 549 (lung), 4 days, mean of three assays
# Method: (§1) HeLa cells (ATCC, USA), which are a human cervical cancer cell line, were dispensed into a 96-well plate at 2×10^3 cells/well, and the cells were treated with DMSO or the indole derivatives of the present invention, and then allowed to grow for 4 days. And then, MTT (3-(4,5-Dimethylthiazol-2-yl)-2,5-diphenyltetrazolium bromide) reagent was added to the wells at 10 μl/well. After 2 hours, the absorbance was measured at “OD 450” and statistical values were obtained using the plizm6 program. The data represent mean values of the results of two repeated assays (Table 1).
# (§2) Specifically, various cancer cell lines were cultured on a microtiter plate (1-3×10^3 cells/well), and the cells were treated with the indole derivative of the present invention and cultured for 4 days. Cytotoxicity was examined by the MTT assay by the same method as in Experimental Example 1-1, and the IC50 was obtained by the log-dose response curve. The data represent mean values of the results of three repeated assays (Table 2).
# A172 [1] = experiment: as above; conditions: Homo sapiens, A 172, 96 h, A172 (brain), 4 days, mean of three assays
# Method: as §1, §2
# HeLa = experiment: as above; conditions: Homo sapiens, 96 h, HeLa (uterine cervix), 4 days, mean of three assays
# Method: as §1, §2
# Hep3B [2] = experiment: as above; conditions: Homo sapiens, 96 h, Hep3B (liver), 4 days, mean of three assays
# Method: as §1, §2
# K562 [3] = experiment: as above; conditions: Homo sapiens, 96 h, K562 (bone marrow), 4 days, mean of three assays
# Method: as §1, §2
# NCIH-125 [4] = experiment: as above; conditions: Homo sapiens, NCI-H125, 96 h, NCIH-125 (lung), 4 days, mean of three assays
# Method: as §1, §2
# NCIH-1299 = experiment: as above; conditions: Homo sapiens, NCI-H1299, 96 h, NCIH-1299 (lung), 4 days, mean of three assays
# Method: as §1, §2
# NCIH-460 = experiment: as above; conditions: Homo sapiens, NCI-H460, 96 h, NCIH-460 (lung), 4 days, mean of three assays
# Method: as §1, §2
# PC3 [5] = experiment: as above; conditions: Homo sapiens, PC-3, 96 h, PC3 (prostate), 4 days, mean of three assays
# Method: as §1, §2
# U373MG = experiment: as above; conditions: Homo sapiens, U373 MG, 96 h, U373MG (brain), 4 days, mean of three assays
# Method: as §1, §2
# Wehi 3 = experiment: as above; conditions: 96 h, Wehi 3 (bone marrow), 4 days, mean of three assays
# Method: as §1, §2
# K562 [6] = experiment: Anti-proliferative activity, multiple drug resistance study (MTT assay), parent line; conditions: Homo sapiens, 96 h, 4 days, mean of three assays
# Method: (§3) HeLa cells (ATCC, USA), which are a human cervical cancer cell line, were dispensed into a 96-well plate at 2×10^3 cells/well, and the cells were treated with DMSO or the indole derivatives of the present invention, and then allowed to grow for 4 days. And then, MTT (3-(4,5-Dimethylthiazol-2-yl)-2,5-diphenyltetrazolium bromide) reagent was added to the wells at 10 μl/well. After 2 hours, the absorbance was measured at “OD 450” and statistical values were obtained using the plizm6 program. The data represent mean values of the results of two repeated assays (Table 1). Specifically, K562 and MCF7 (Bio Evaluation Center, Korea Research Institute of Bioscience and Biotechnology, Korea), and K562/ADR and MCF7/ADR (Bio Evaluation Center, Korea Research Institute of Bioscience and Biotechnology, Korea), which are multiple drug-resistant cell lines of the above mentioned cell lines, respectively, were cultured on a microtiter plate at 1-3×10^3 cells/well.
# MCF7 [7] = experiment: as above; conditions: Homo sapiens, 96 h, 4 days, mean of three assays
# Method: as §3
# K562/ADR = experiment: Anti-proliferative activity in cancer cells showing multiple drug resistance (MTT assay)
# Method: as §3
# MCF7/ADR = experiment: as above
# Method: as §3
# A172 [8] = experiment: Effect on cell cycle progression (propidium iodine, FACS); conditions: A172, 17 hours
# Method: (§4) Several cancer cell lines were cultured on a 12 well plate (3×10^4 cells/well), and treated with DMSO or WCI-1031, an indole derivative of the present invention, for 17 hours, and then added with a propidium iodine dye to stain the cellular DNA, and subjected to measurement using FACS. The concentrations at which cells gathered in the G2/M phase and numbers of the cells represented as percentages were shown (Table 5).
# EL4 = experiment: as above; conditions: EL4, 17 hours
# Method: as §4
# Hep3B [9] = experiment: as above; conditions: 17 hours
# Method: as §4
# K562 [10] = experiment: as above; conditions: K562, 17 hours
# Method: as §4
# MCF7 ADR = experiment: as above; conditions: 17 hours
# Method: as §4
# MCF7 [11] = experiment: as above; conditions: MCF7, 17 hours
# Method: as §4
# NCIH-125 [12] = experiment: as above; conditions: NCIH-125, 17 hours
# Method: as §4
# PC3 [13] = experiment: as above; conditions: PC3, 17 hours
# Method: as §4
# [14] = test system: Several cancer cell lines; experiment: Effect on cell cycle progression, summary over the cell lines of Table 5; conditions: summary over the cell lines of Table 5, 17 hours
# Method: as §4
structure (smiles),measurement,setting,value
"COC(=O)Cn1c(C)c(/C=N/NC(=O)c2cc3c(ccc4ccccc43)o2)c2ccccc21 [WCI-1031, methyl (E)-2-(2-methyl-3-((2-(naphtho[2,1-b]furan-2-carbonyl) hydrazono)methyl)-1H-indole-1-yl)acetate]",IC50,A 549,495 nM
same,IC50,A172 [1],1120 nM
same,IC50,HeLa,297 nM
same,IC50,Hep3B [2],503 nM
same,IC50,K562 [3],549 nM
same,IC50,NCIH-125 [4],333 nM
same,IC50,NCIH-1299,376 nM
same,IC50,NCIH-460,671 nM
same,IC50,PC3 [5],549 nM
same,IC50,U373MG,262 nM
same,IC50,Wehi 3,290 nM
same,IC50,K562 [6],532 nM
same,IC50,MCF7 [7],1320 nM
same,IC50,"K562/ADR; Homo sapiens, 96 h, K562/ADR multiple drug-resistant line, 4 days, MTT, mean of three assays",318 nM
same,Resistance factor,K562/ADR; ratio of IC50 K562/ADR to IC50 K562,0.60
same,IC50,"MCF7/ADR; Homo sapiens, NCI/ADR-RES, 96 h, MCF7/ADR multiple drug-resistant line, 4 days, MTT, mean of three assays",481 nM
same,Resistance factor,MCF7/ADR; ratio of IC50 MCF7/ADR to IC50 MCF7,0.36
same,effect μM (concentration at which cells gathered in the G2/M phase),A172 [8],1.0 µM
same,% of G2/M,A172 [8]; at the effect concentration,70.10%
same,effect μM (concentration at which cells gathered in the G2/M phase),EL4,0.5 µM
same,% of G2/M,EL4; at the effect concentration,50.84%
same,effect μM (concentration at which cells gathered in the G2/M phase),Hep3B [9],0.5 µM
same,% of G2/M,Hep3B [9]; at the effect concentration,68.13%
same,effect μM (concentration at which cells gathered in the G2/M phase),K562 [10],0.5 µM
same,% of G2/M,K562 [10]; at the effect concentration,76.72%
same,effect μM (concentration at which cells gathered in the G2/M phase),MCF7 ADR,0.5 µM
same,% of G2/M,MCF7 ADR; at the effect concentration,52.37%
same,effect μM (concentration at which cells gathered in the G2/M phase),MCF7 [11],0.5 µM
same,% of G2/M,MCF7 [11]; at the effect concentration,59.08%
same,effect μM (concentration at which cells gathered in the G2/M phase),NCIH-125 [12],1.0 µM
same,% of G2/M,NCIH-125 [12]; at the effect concentration,48.10%
same,effect μM (concentration at which cells gathered in the G2/M phase),PC3 [13],0.5 µM
same,% of G2/M,PC3 [13]; at the effect concentration,65.35%
same,numbers of the cells in the G2/M phase,[14],≥ 50%

# From US20210292306A1, “NOVEL INDOLE DERIVATIVE AND ANTI-CANCER CONPOSITION CONTAINING SAME” (KOREA RESEARCH INSTITUTE OF BIOSCIENCE AND BIOTECHNOLOGY, priority 2016, published 2021)
